Assay results: ChEMBL document CHEMBL3400129, “Novel hybrid nocodazole analogues as tubulin polymerization inhibitors and their antiproliferative activity” (Bioorg Med Chem Lett, 2015)
pIC50: −log10 of the molar value.

What was measured:
Tubulin = experiment: Inhibition of tubulin polymerization (unknown origin); assay type: protein-complex assay, Homo sapiens
Tubulin (Homo sapiens) = Tubulin (Homo sapiens) (UniProt P68371+Q9H4B7+P0DPH7+P68366+Q13509+Q71U36+P04350+Q3ZCM7+P07437+P68363+Q9BQE3+Q6PEY2+Q13885+Q9BVA1+Q9BUF5); experiment: Displacement of [3H]colchicine from tubulin (unknown origin) at 5 uM; assay type: protein-complex assay
A549 = experiment: Cytotoxicity against human A549 cells; assay type: functional, cell-based

Row | Structure (SMILES) | pIC50 (Tubulin) | inhibition (Tubulin (Homo sapiens)) [%] | pIC50 (A549)
1 | COC(=O)Nc1nc2ccc(C(=O)c3sccc3O)cc2[nH]1 | 5.70 | 56 | 5.22
2 | COC(=O)Nc1nc2ccc(C(=O)c3ccc(OC)cc3O)cc2[nH]1 | 5.66 | 38 | < 4.00
3 | COC(=O)Nc1nc2ccc(/C=C\c3cc(OC)c(OC)c(OC)c3)cc2[nH]1 | 5.80 | 39 | 4.92
4 | COC(=O)Nc1nc2ccc(C(=O)c3ccc(O)cc3O)cc2[nH]1 | < 4.70 | – | < 4.00
